Our source for the IC90 and melting point values is patent US6825210B2, “Tricyclic compounds useful as HIV reverse transcriptase inhibitors” (Bristol-Myers Squibb Pharma Company, priority 2001, dated 2004).

In brackets after ≈: the same amount, converted by molar mass.

In the first data set the test system is HIV-1 (RF). In words: HIV RNA assay: microplate based compound evaluation in HIV-1 infected MT-2 cells. The data set is classed as cell-based. Conditions: Human immunodeficiency virus 1, MT2, 72 h; HIV-1 (RF) infected MT-2 cells, 3 days culture; value used to standardize the virus inoculum; read-out: IC90 (concentration of compound required to reduce the HIV RNA level by 90%). The method, then: DNA Plasmids and in Vitro RNA Transcripts:
Plasmid pDAB 72 containing both gag and pol sequences of BH10 (bp 113-1816) cloned into PTZ 19R was prepared according to Erickson-Viitanen et al. AIDS Research and Human Retroviruses 1989, 5, 577. The plasmid was linearized with Bam HI prior to the generation of in vitro RNA transcripts using the Riboprobe Gemini system II kit (Promega) with T7 RNA polymerase. Synthesized RNA was purified by treatment with RNase free DNAse (Promega), phenol-chloroform extraction, and ethanol precipitation. RNA transcripts were dissolved in water, and stored at −70° C. The concentration of RNA was determined from the A260.
Biotinylated capture probes were purified by HPLC after synthesis on an Applied Biosystems (Foster City, Calif.) DNA synthesizer by addition of biotin to the 5′ terminal end of the oligonucleotide, using the biotin-phosphoramidite reagent of Cocuzza, Tet. Lett. 1989, 30, 6287. […]
MT-2 and MT-4 cells were maintained in RPMI 1640 supplemented with 5% fetal calf serum (FCS) for MT-2 cells or 10% FCS for MT-4 cells, 2 mM L-glutamine and 50 μg/mL gentamycin, all from Gibco. […] Infectious titers of HIV-1(RF) stocks were 1-3×10^7 PFU (plaque forming units)/mL as measured by plaque assay on MT-2 cells (see below). […]
Consider `Nc1ccn([C@H]2CC[C@@H](CO)O2)c(=O)n1` [ddC, 2′,3′-dideoxycytidine], for which the IC90 is 0.2 µg/mL (≈ 0.947 µM).

System in the next data set: not given
Test: not given
Details: not given
The molecule `CC(C)OCC1(C(F)(F)F)c2cc(C#N)ccc2Nc2ncc(Br)cc21` (stereo not drawn) [Compound 15, 3-bromo-7-cyano-5-trifluoromethyl-5-isopropoxymethyl-5,10-dihydrobenzo[b][1,8]naphthyridine] returned a melting point of 76 to 77 °C.

In turn, `CC(C)OCC1(C(F)(F)F)c2cc(F)ccc2Nc2c1cc(Cl)c[n+]2[O-]` (stereo not drawn) [Compound 7, 3-Chloro-7-fluoro-5-isopropoxymethyl-5-trifluoromethyl-5,10-dihydro-benzo[b][1,8]naphthyridine 1-oxide] came in with a melting point of 165 to 166 °C.

In the case of `CC(C)OCC1(C(F)(F)F)c2cc(F)ccc2Nc2ncc(Cl)cc21` (stereo not drawn) [Compound 6, 3-Chloro-7-fluoro-5-isopropoxymethyl-5-trifluoromethyl-5,10-dihydro-benzo[b][1,8]naphthyridine], the melting point is 96 to 97 °C.

Molecule `CC(C)OCC1(C(F)(F)F)c2cc(C#N)ccc2Nc2ncc(C#N)cc21` (stereo not drawn) [Compound 17, 3,7-dicyano-5-trifluoromethyl-5-isopropoxymethyl-5,10-dihydrobenzo[b][1,8]naphthyridine] yielded a melting point of 226 to 227 °C.

Consider `CC(C)OCC1(C(F)(F)F)c2cc(Cl)ccc2Nc2ncc(Cl)cc21` (stereo not drawn) [Compound 9, 3,7-Dichloro-5-isopropoxymethyl-5-trifluoromethyl-5,10-dihydro-benzo[b][1,8]naphthyridine], for which the melting point was in the range of 137 to 138 °C.
